{"source": "patent US20100152297A1", "about": "“COMPOSITION FOR REGULATING CELLULAR SENESCENCE COMPRISING N-[2-(CYCLOHEXY-LOXYL)-4-NITROPHENYL]-METHANESULFONAMIDE” (priority 2007, published 2010)", "key": {"[1]": {"tested_on": "caveolin-1", "assay": "Western blot, caveolin-1 expression", "type": "cell-based, human", "details": "for expression of caveolin-1: cells cultured with inhibitor, harvested at each passage; for expression of caveolin-1, short treatment: short period of time (NS-398: 4 hours)", "procedure": "(§1) In order to examine the effects of COX-2 inhibitors on cellular senescence, cells were cultured and treated in the same manner as in Example 2, and then subjected to Western blot. The cultured cells were washed and collected in PBS, and then were disrupted in RIPA buffer (150 mM NaCl, 100 mM Tris-HCl, 1% Tween-20, 1% sodium deoxycholate and 0.1% SDS), containing 0.5 mM EDTA, 1 mM PMSF, 10 μg/ml leupeptin, 10 μg/ml aprotinin and 10 μg/ml pepstatin. The disrupted cells were centrifuged, and the supernatant was collected. Proteins in the cell extract were isolated by SDS-PAGE and transferred to nitrocellulose membranes. Then, the proteins were allowed to react with each of p53, p21, COX-1, COX-2 and caveolin-1 antibodies, and the protein-antibody complexes on the nitrocellulose membranes were allowed to react with peroxidase-conjugated anti-mouse or anti-rabbit secondary antibody. Then, the corresponding bands were visualized by chemiluminescence (Amersham Bioscience, Boston, Mass.) using an ECL kit. Herein, the antibodies for p53, p21 and COX-1 were purchased from Oncogene Science (Cambridge, Mass.), Cell Signaling Technology, Inc. (Danvers, Mass.), and Santa Cruz Biotechnology (Santa Cruz, Calif.), respectively, and the antibodies for COX-2 and cavelolin-1 were purchased from BD Bioscience (San Jose, Calif.). Also, β-actin was used as an intracellular control protein to correct the amount of the intracellular total protein."}, "[2]": {"tested_on": "reactive oxygen species", "assay": "Measurement of reactive oxygen species with DCFH-DA", "type": "cell-based, human", "details": "treated for a long period of time (65 days), P29", "procedure": "In order to examine the effects of COX-2 inhibitors on cellular senescence, cells were cultured and treated in the same manner as in Example 2, and reactive oxygen in the cells was then measured. The cultured cells were treated with 5 μM DCFH-DA (Invitrogen, Carlsbad, Calif.), and the cells were incubated at 37 C for 45 minutes and then washed with PBS. The washed cells were collected in 1 ml PBS, and then disrupted with ultrasonic waves. The fluorescence of the cells was measured with a fluorescence spectrophotometer (Molecular Devices, Sunnyvale, Calif.), and the measured fluorescence value was corrected with the cell number."}, "[3]": {"tested_on": "collagen", "details": "fibroblasts and hepatic stellate cells; references 24 and 36; cited from earlier work"}, "[4]": {"tested_on": "p53", "assay": "Western blot, p53 expression", "type": "cell-based, human", "details": "cells cultured with inhibitor, harvested at each passage", "quoted_text": "In order to examine the effects of COX-2 inhibitors on cellular senescence, cells were cultured and treated in the same manner as in Example 2, and then subjected to Western blot. The cultured cells were washed and collected in PBS, and then were disrupted in RIPA buffer (150 mM NaCl, 100 mM Tris-HCl, 1% Tween-20, 1% sodium deoxycholate and 0.1% SDS), containing 0.5 mM EDTA, 1 mM PMSF, 10 μg/ml leupeptin, 10 μg/ml aprotinin and 10 μg/ml pepstatin. The disrupted cells were centrifuged, and the supernatant was collected. Proteins in the cell extract were isolated by SDS-PAGE and transferred to nitrocellulose membranes. Then, the proteins were allowed to react with each of p53, p21, COX-1, COX-2 and caveolin-1 antibodies, and the protein-antibody complexes on the nitrocellulose membranes were allowed to react with peroxidase-conjugated anti-mouse or anti-rabbit secondary antibody. Then, the corresponding bands were visualized by chemiluminescence (Amersham Bioscience, Boston, Mass.) using an ECL kit. Herein, the antibodies for p53, p21 and COX-1 were purchased from Oncogene Science (Cambridge, Mass.), Cell Signaling Technology, Inc. (Danvers, Mass.), and Santa Cruz Biotechnology (Santa Cruz, Calif.), respectively, and the antibodies for COX-2 and cavelolin-1 were purchased from BD Bioscience (San Jose, Calif.). […]"}, "[5]": {"tested_on": "total cholesterol", "assay": "Analysis of intracellular total cholesterol", "type": "cell-based, human", "details": "corrected with protein concentration", "procedure": "In order to examine the effects of COX-2 inhibitors on cellular senescence, cells were cultured and treated in the same manner as in Example 2, and then analyzed for cholesterol. 2×10^6 cells were treated with a mixture of chloroform and methanol (2:1) to extract a fatty component. The amount of total cholesterol in the fatty component was measured at 570 nm using a staining method according to the manual of BioVision (Mountain View, Calif.), and the measured values were corrected with the protein concentration."}, "[6]": {"tested_on": "human promonocytes", "details": "reference 25; cited from earlier work"}, "[7]": {"tested_on": "caveolin-1 mRNA", "assay": "RT-PCR, caveolin-1 mRNA", "type": "cell-based, human", "details": "corrected with GAPDH", "procedure": "In order to examine the effects of COX-2 inhibitors on cellular senescence, cells were cultured and treated in the same manner as in Example 2, and then subjected to RT-PCR. […] The cavelolin-1 gene was amplified using a sense primer ([NT]) and an anti-sense primer ([NT]), and the GAPDH gene was amplified using a sense primer ([NT]) and an anti-sense primer ([NT]). The polymerase chain reaction was performed in the following conditions: 25 cycles of 30 sec at 95 t, 30 sec at 60° C. and 30 sec at 72° C. The resulting DNA products were electrophoresed on 2% agarose gel containing EtBr."}, "[8]": {"tested_on": "catalase", "assay": "Western blot, catalase expression", "type": "cell-based, human", "details": "P28 cells cultured in the presence of inhibitor"}, "[9]": {"tested_on": "p21", "assay": "Western blot, p21 expression", "type": "cell-based, human", "details": "cells cultured with inhibitor, harvested at each passage", "procedure": "as §1, with “Also, β-actin was used as an intracellular control protein to correct the amount of the intracellular total protein.” left out"}, "[10]": {"tested_on": "SOD-2 (superoxide dismutase-2)", "assay": "Western blot, SOD-2 expression", "type": "cell-based, human", "details": "P28 cells cultured in the presence of inhibitor"}, "[11]": {"tested_on": "Gpx-1 (glutathione peroxidase-1)", "assay": "Western blot, Gpx-1 expression", "type": "cell-based, human", "details": "P28 cells cultured in the presence of inhibitor"}, "[12]": {"tested_on": "human fibroblasts", "assay": "Regulation of growth rate: number of population doublings (PDs)", "type": "cell-based", "details": "for effect on cellular senescence: conclusion from population doublings and SA-β-gal staining; for reduction of the maximum number of population doublings compared to DMSO: celecoxib 1 μM, nimesulide 20 μM, aspirin 1 mM, ibuprofen 20 μM, flurbiprofen 5 μM", "procedure": "According to the literature of Boyce and Ham (1983), human fibroblasts were isolated from foreskin, and then cultured in a DMEM medium, containing 10% fetal bovine serum (Life Technology Inc., Grand Island, N.Y.), penicillin (100 units/ml) and streptomycin (100 units/ml)). […] Then, the number of the cells was calculated by trypan blue staining, and the number of population doublings (PDs) of the cells was calculated according to the following equation 1: Number of population doublings (PDs)=log(A/B)/log2 [Math Figure 1] wherein A is the number of cells harvested at one passage, and B is the initial cell number at that passage."}, "[13]": {"tested_on": "human vascular endothelial cells", "details": "reference 16; cited from earlier work"}, "[14]": {"tested_on": "human fibroblasts", "assay": "Senescence-associated beta-galactosidase (SA-β-gal) staining", "type": "cell-based", "details": "celecoxib 1 μM, nimesulide 20 μM, aspirin 1 mM, ibuprofen 20 μM, flurbiprofen 5 μM", "procedure": "Herein, the senescence-associated β-galactosidase (SA-β-gal) staining was performed in the following manner according to the method of Dimri et al. (1995) (17). […] The cultured cells were seeded on a 35 mm dish, and then stabilized. Then, the cells were washed twice with PBS and fixed with 3% formaldehyde at room temperature for 5 minutes. […] During the progression of the reaction, light was blocked. […] The experiment was independently repeated twice, and the mean value and standard deviation of the measurements were calculated."}, "[15]": {"tested_on": "Drosophila", "details": "long-term administration; reference 15; cited from earlier work"}}, "note": "Entries after “also recorded” stand apart in the source; their conditions may differ."}
{"molecule": "CS(=O)(=O)Nc1ccc([N+](=O)[O-])cc1OC1CCCCC1", "note": "[NS-398, N-[2-(cyclohexyloxyl)-4-nitrophenyl]-methanesulfonamide]", "values": [{"measurement": "expression of caveolin-1", "setting": "[1]", "result": "inhibited the expression of caveolin-1 at all passages"}, {"measurement": "expression of caveolin-1, short treatment", "setting": "[1]", "result": "clearly inhibited"}, {"measurement": "reduction of the level of reactive oxygen species", "setting": "[2]", "result": "three"}, {"measurement": "expression of collagen", "setting": "[3]", "result": "increased"}, {"measurement": "expression of p53", "setting": "[4]", "result": "without inhibiting"}, {"measurement": "intracellular total cholesterol concentration", "setting": "[5]", "result": "reduced"}, {"measurement": "reactive oxygen species in human promonocytes", "setting": "[6]", "result": "remove reactive oxygen species"}, {"measurement": "mRNA level of caveolin-1", "setting": "[7]", "result": "reduced"}, {"measurement": "expression of catalase", "setting": "[8]", "result": "reduced"}, {"measurement": "expression of p21", "setting": "[9]", "result": "inhibited"}, {"measurement": "expression of SOD-2", "setting": "[10]", "result": "reduced"}, {"measurement": "expression of Gpx-1", "setting": "[11]", "result": "increased"}, {"measurement": "increase of the maximum number of population doublings compared to DMSO", "setting": "[12]; PD 24 before treatment, NS-398 20 μM", "result": 7, "unit": "times"}, {"measurement": "effect on cellular senescence", "setting": "[12]", "result": "inhibited cellular senescence; also recorded: strongly inhibits cellular senescence"}]}
{"molecule": "CC(=O)Oc1ccccc1C(=O)O", "note": "[aspirin, acetylsalicylic acid]", "values": [{"measurement": "effect on senescence in human vascular endothelial cells", "setting": "[13]", "result": "inhibited senescence"}, {"measurement": "increase of the ratio of SA-β-gal positive cells compared to DMSO", "setting": "[14]", "result": 1.9, "unit": "times"}, {"measurement": "average lifespan of Drosophila", "setting": "[15]", "result": "led to a decrease in the average lifespan of the Drosophila or had no effect on the average lifespan"}, {"measurement": "reduction of the maximum number of population doublings compared to DMSO", "setting": "[12]; PD 24 before treatment", "result": 7, "unit": "times"}, {"measurement": "effect on cellular senescence", "setting": "[12]", "result": "promoted cellular senescence"}]}
{"molecule": "Cc1ccc(-c2cc(C(F)(F)F)nn2-c2ccc(S(N)(=O)=O)cc2)cc1", "note": "[celecoxib]", "values": [{"measurement": "increase of the level of reactive oxygen species", "setting": "[2]", "result": 1.2, "unit": "times"}]}
{"molecule": "CC(C(=O)O)c1ccc(-c2ccccc2)c(F)c1", "note": "(stereo not shown) [flurbiprofen]", "values": [{"measurement": "increase of the ratio of SA-β-gal positive cells compared to DMSO", "setting": "[14]", "result": 1.6, "unit": "times"}, {"measurement": "reduction of the maximum number of population doublings compared to DMSO", "setting": "[12]; PD 24 before treatment", "result": 4, "unit": "times"}, {"measurement": "effect on cellular senescence", "setting": "[12]", "result": "promoted cellular senescence"}]}
{"molecule": "CC(C)Cc1ccc(C(C)C(=O)O)cc1", "note": "(stereo not shown) [ibuprofen]", "values": [{"measurement": "increase of the ratio of SA-β-gal positive cells compared to DMSO", "setting": "[14]", "result": 1.7, "unit": "times"}, {"measurement": "reduction of the maximum number of population doublings compared to DMSO", "setting": "[12]; PD 24 before treatment", "result": 5, "unit": "times"}, {"measurement": "effect on cellular senescence", "setting": "[12]", "result": "promoted cellular senescence"}]}
{"molecule": "COc1ccc2c(c1)c(CC(=O)O)c(C)n2C(=O)c1ccc(Cl)cc1", "note": "[indomethacin]", "values": [{"measurement": "effect on senescence in human vascular endothelial cells", "setting": "[13]", "result": "promoted senescence"}, {"measurement": "average lifespan of Drosophila", "setting": "[15]", "result": "led to a decrease in the average lifespan of the Drosophila or had no effect on the average lifespan"}]}
{"molecule": "CS(=O)(=O)Nc1ccc([N+](=O)[O-])cc1Oc1ccccc1", "note": "[nimesulide]", "values": [{"measurement": "expression of caveolin-1", "setting": "[1]", "result": "increased"}, {"measurement": "expression of caveolin-1, short treatment", "setting": "[1]", "result": "did not significantly change"}, {"measurement": "increase of the level of reactive oxygen species", "setting": "[2]", "result": 1.2, "unit": "times"}, {"measurement": "increase of the ratio of SA-β-gal positive cells compared to DMSO", "setting": "[14]", "result": 1.3, "unit": "times"}, {"measurement": "expression of p53", "setting": "[4]", "result": "increased"}, {"measurement": "intracellular total cholesterol concentration", "setting": "[5]", "result": "increased"}, {"measurement": "reactive oxygen species in human promonocytes", "setting": "[6]", "result": "remove reactive oxygen species"}, {"measurement": "mRNA level of caveolin-1", "setting": "[7]", "result": "increased"}, {"measurement": "expression of catalase", "setting": "[8]", "result": "reduced"}, {"measurement": "expression of p21", "setting": "[9]", "result": "increased"}, {"measurement": "expression of SOD-2", "setting": "[10]", "result": "reduced"}, {"measurement": "expression of Gpx-1", "setting": "[11]", "result": "reduced"}, {"measurement": "reduction of the maximum number of population doublings compared to DMSO", "setting": "[12]; PD 24 before treatment", "result": "two"}, {"measurement": "effect on cellular senescence", "setting": "[12]", "result": "promoted cellular senescence"}]}
{"molecule": "O=C(O)c1ccccc1O", "note": "[salicylic acid]", "values": [{"measurement": "average lifespan of Drosophila", "setting": "[15]", "result": "led to a decrease in the average lifespan of the Drosophila or had no effect on the average lifespan"}]}
